# Patent US4162307A, “Method for anaesthesia by use of a pentapeptide” (priority 1977, dated 1979)
# Structures can show the parent of a compound that is named as a salt.
# Key:
# [1] = system: isolated mouse vas deferens; test: Neurally evoked contractions of the isolated mouse vas deferens
# [2] = system: isolated guinea-pig ileum; test: Electrically-induced contractions of the isolated guinea-pig ileum; details: 0.1 Hz; 0.4 ms; 30-40 V
# Description: (Each intestinal segment was impaled by the anode and suspended with a 2-3 g load. Stimulus parameters: frequency: 0.1 Hz; duration: 0.4 ms; voltage (supramaximal) 30-40 V; the contractions were transduced isotonically).
# [3] = system: citric acid aerosol-induced coughs; test: Antitussive testing, citric acid aerosol; type: in vivo, guinea-pigs
# Experimental: J. Pharmacol, 39, (1970) 225.
# (C) For antitussive testing, guinea-pigs are subjected to an aerosol containing 20% citric acid, 30 minutes after administration of compound (orally or subcutaneously). The number of coughs during a five minute exposure are counted and meaned for six animals per treatment. The method is that described by Boura, A. L. A., Green, A. F. and Saunders, I. A. Br. J. Pharmac., May 1970, Vol. 39, No. 1, page 225.
# (§1) From the data obtained the respective ED50 figures were calculated (i.e. the dose required to elicit the appropriate effect in 50% of the animals). N.T.: not tested.
# [4] = system: castor oil-induced diarrhoea; test: Antidiarrhoeal activity in the rat (castor oil); type: in vivo
# Experimental: (B) Antidiarrhoeal activity in the rat. In this procedure rats were straved for 24 hours, the peptide then administered either subcutaneously or orally followed after 15 minutes by 1 ml castor oil per rat given orally.
# as §1
# mouse hot plate = test: Analgesia in mice in the hot plate test; type: in vivo
# Experimental: (A) Analgesia in mice in the hot plate test (modification of the method of Eddy, N. B. et al., J. Pharm. Exp. Therap. (1953) 107, 385, the peptide being administered by intracerebroventricular injection).
# as §1
# [5] = system: righting, pinnal and corneal reflexes; test: Anaesthesia in laboratory animals (abolition of reflexes), standard pharmacological procedures; type: in vivo, rats and mice
# [6] = system: righting, pinnal and corneal reflexes; test: Anaesthetic effects following intracerebroventricular injection in mice (loss of righting, pinnal and corneal reflexes); type: in vivo; details: mouse, loss of all three reflexes
# [7] = system: righting, pinnal and corneal reflexes; test: Anaesthetic effects tested intravenously; type: in vivo, mice; details: loss of all three reflexes
# Experimental: (D) Compounds are tested for anaesthetic effects following intracerebroventricular injection in mice. The animals are observed for loss of righting reflex (failure to roll over within 10 seconds of being turned on their backs), loss of pinnal reflex (failure to flick the ear in response to a light touch at the base of the pinna) and loss of corneal reflex (failure to blink when the cornea is touched lightly). Loss of all three reflexes constitutes anaesthesia. In addition, any other effects are noted. […] Interesting compounds are then tested intravenously in the same manner.
# as §1
smiles,measurement,setting,value
"CCNC(=O)[C@@H](CC(C)C)NC(=O)[C@H](Cc1ccccc1)NC(=O)CNC(=O)[C@@H](C)NC(=O)[C@@H](N)Cc1ccc(O)cc1 [peptide of formula (I), h.tyr.D-Ala.Gly.Phe.D-Leu.NHEt]",Naloxone sensitivity of vas deferens inhibition,[1]; naloxone,abolished by the known narcotic antagonist naloxone
same,Effect on neurally evoked contractions of isolated mouse vas deferens,[1]; pulses at 0.1 Hz,Inhibition of neurally evoked contractions
same,Effect on electrically-induced contractions of isolated guinea-pig ileum,[2],Reduction of electrically-induced contractions
same,Antitussive activity,[3]; guinea-pigs,exhibits antitussive activity
same,Antidiarrhoeal activity,"[4]; rats, castor oil-induced diarrhoea",effective in reducing castor oil-induced diarrhoea
same,Naloxone sensitivity of analgesic activity,"mouse hot plate; mice, hot plate, naloxone",abolished by naloxone
same,"Analgesic activity, hot plate","mouse hot plate; mice, intracerebroventricular injection",exhibits analgesic activity
same,Reversal of reflex-abolishing effects by naloxone,"[5]; effects (i), (ii) and (iii), naloxone administered",may be reversed by administration of the known narcotic antagonist naloxone
same,Effect on the corneal reflex,[5]; laboratory animals,Abolition of the corneal reflex
same,Effect on the pinnal reflex,[5]; laboratory animals,Abolition of the pinnal reflex
same,Effect on the righting reflex,[5]; laboratory animals,Abolition of the righting reflex
same,Induction and maintenance of anaesthesia,"[5]; rats and mice, parenteral, e.g. intravenous or intracerebroventricular injection",both to induce and to maintain anaesthesia
"CN1CC[C@]23c4c5ccc(O)c4O[C@H]2[C@@H](O)C=C[C@H]3[C@H]1C5 [morphine, reference compound]","Effect on the righting reflex, morphine by acute bolus injection","[5]; mice, acute bolus injection in up to lethal doses",does not abolish the righting reflex
CCNC(=O)[C@@H](CC(C)C)NC(=O)[C@H](Cc1ccccc1)NC(=O)CNC(=O)[C@@H](C)NC(=O)[C@@H](N)Cc1ccc(O)cc1 [H.Tyr.D-Ala.Gly.Phe.D-Leu.NHEt hydrochloride],ED50 anaesthesia i.c.v.,[6],2.8 μg/mouse
same,ED50 antitussive,"[3]; guinea-pig, 20% citric acid aerosol 30 minutes after administration, route not printed in table (orally or subcutaneously)",2.0 mg/kg
same,ED50 anti-diarrhoea,"[4]; rat, s.c., castor oil 1 ml orally 15 minutes after peptide",10 mg/kg
same,ED50 anaesthesia i.v.,[7],20 mg/kg
same,"ED50 mouse hot plate, analgesia","mouse hot plate; i.c.v., dose eliciting the effect in 50% of the animals",0.03 μg/mouse
